In patent US20230219931A1, “FUSED HETEROARYL HYDROXAMATES AS STING AGONISTS” (BiSiChem Co., Ltd., priority 2022, published 2023):
Where a name gives a salt, the structure may show the parent alone.

System: ISG reporter activity in THP1-Dual cell
Experiment: ISG reporter assay
Format: cell-based
Conditions: Homo sapiens, compounds incubated with cells for 24 hours, QUANTI-Blue, absorbance at 655 nm
Experimental: [Worded in the source for another cell line; this cell line is reported under the same test.] THP1-Blue cells (cat. no. thp-isg) were purchased from InvivoGen (Sandiago, USA). Penicillin—streptomycin (cat. no. L0022-100), Fetal Bovine Serum (FBS) (cat. no. S1480-500) and Roswell Park Memorial Institute (RPMI) 1640 media (cat. L0498-500) were purchased from biowest (Nuaille, France). Zeocin (cat. no. ant-zn-OS) and Normocin (cat. no. ant-nr-1) were purchased from InvivoGen (Sandiago, USA). QUANTI-Blue™ (cat. no. rep-qbs) was purchased from InvivoGen. THP1-Blue cells were cultured in RPMI 1640 medium with 10% heat-inactivated FBS, 100 μg/ml Normocin, 100 μg/ml Zeocin and 100 U/ml-100 μg/ml penicillin-streptomycin. The cells were incubated at 37° C. in a humidified atmosphere of 5% CO2.
THP1-Blue cells were seeded at 5×10^4 cells/well (90 μl/well). 10 μl of compounds were added to the cells and incubated for 24 hours. 20 μl of cell culture supernatant was dispensed new 96-well plate (cat. no. 30096) with 180 μl of QUANTI-Blue™ solution and incubated for 15 minutes at 37° C. The absorbance was measured by Varioskan Lux (Thermofisher Scientific, USA) at 655 nm.

Row | SMILES | EC50 [µM]
1 | CCn1nc(C)cc1C(=O)Nc1nc2cc(C(=O)O)cc(OC)c2n1C/C=C/Cn1c(NC(=O)c2cc(C)nn2CC)nc2cc(C(N)=O)cc(OCC#CC3CCN(C(=O)OC(C)(C)C)CC3)c21 [Example 1, (E)-1-(4-(7-((3-(1-(tert-butoxycarbonyl)piperidin-4-yl)prop-2-yn-1-yl)oxy)-5-carbamoyl-2-(1-ethyl-3-methyl-1H-pyrazole-5-carboxamido)-1H-benzo[d]imidazol-1-yl)but-2-en-1-yl)-2-(1-ethyl-3-methyl-1H-pyrazole-5-carboxamido)-7-methoxy-1H-benzo[d]imidazole-5-carboxylic acid] | > 0.5
2 | CCn1nc(C)cc1C(=O)Nc1nc2cc(C(=O)NOC)cc(OC)c2n1C/C=C/Cn1c(NC(=O)c2cc(C)nn2CC)nc2cc(C(N)=O)cc(OCC#CC3CCN(C(=O)OC(C)(C)C)CC3)c21 [Example 2, tert-butyl (E)-4-(3-((5-carbamoyl-2-(1-ethyl-3-methyl-1H-pyrazole-5-carboxamido)-1-(4-(2-(1-ethyl-3-methyl-1H-pyrazole-5-carboxamido)-7-methoxy-5-(methoxycarbamoyl)-1H-benzo[d]imidazol-1-yl)but-2-en-1-yl)-1H-benzo[d]imidazol-7-yl)oxy)prop-1-yn-1-yl)piperidine-1-carboxylate] | > 0.5
3 | CCn1nc(C)cc1C(=O)Nc1nc2cc(C(N)=O)cc(OC)c2n1C/C=C/Cn1c(NC(=O)c2cc(C)nn2CC)nc2cc(C(N)=O)cc(OCC#CC3CCNCC3)c21 [Example 4, (E)-1-(4-(5-carbamoyl-2-(1-ethyl-3-methyl-1H-pyrazole-5-carboxamido)-7-((3-(piperidin-4-yl)prop-2-yn-1-yl)oxy)-1H-benzo[d]imidazol-1-yl)but-2-en-1-yl)-2-(1-ethyl-3-methyl-1H-pyrazole-5-carboxamido)-7-methoxy-1H-benzo[d]imidazole-5-carboxamide hydrochloride] | 0.05 to 0.5
4 | CCn1nc(C)cc1C(=O)Nc1nc2cc(C(N)=O)cc(OC)c2n1C/C=C/Cn1c(NC(=O)c2cc(C)nn2CC)nc2cc(C(N)=O)cc(OCC#CC3CCN(C(=O)OC4CCN(C(=O)OC(C)(C)C)CC4)CC3)c21 [Example 8, 1-(tert-butoxycarbonyl)piperidin-4-yl (E)-4-(3-((5-carbamoyl-1-(4-(5-carbamoyl-2-(1-ethyl-3-methyl-1H-pyrazole-5-carboxamido)-7-methoxy-1H-benzo[d]imidazol-1-yl)but-2-en-1-yl)-2-(1-ethyl-3-methyl-1H-pyrazole-5-carboxamido)-1H-benzo[d]imidazol-7-yl)oxy)prop-1-yn-1-yl)piperidine-1-carboxylate] | < 0.05
5 | CCn1nc(C)cc1C(=O)Nc1nc2cc(C(N)=O)cc(OC)c2n1C/C=C/Cn1c(NC(=O)c2cc(C)nn2CC)nc2cc(C(N)=O)cc(OCC#CC3CCN(C(=O)OC4CCNCC4)CC3)c21 [Example 9, piperidin-4-yl (E)-4-(3-((5-carbamoyl-1-(4-(5-carbamoyl-2-(1-ethyl-3-methyl-1H-pyrazole-5-carboxamido)-7-methoxy-1H-benzo[d]imidazol-1-yl)but-2-en-1-yl)-2-(1-ethyl-3-methyl-1H-pyrazole-5-carboxamido)-1H-benzo[d]imidazol-7-yl)oxy)prop-1-yn-1-yl)piperidine-1-carboxylate hydrochloride] | 0.05 to 0.5
6 | CCn1nc(C)cc1C(=O)Nc1nc2cc(C(N)=O)cc(OC)c2n1C/C=C/Cn1c(NC(=O)c2cc(C)nn2CC)nc2cc(C(N)=O)cc(OCC#CC3CCN(C(=O)C4CCN(C(=O)OC(C)(C)C)CC4)CC3)c21 [Example 12, tert-butyl (E)-4-(4-(3-((5-carbamoyl-1-(4-(5-carbamoyl-2-(1-ethyl-3-methyl-1H-pyrazole-5-carboxamido)-7-methoxy-1H-benzo[d]imidazol-1-yl)but-2-en-1-yl)-2-(1-ethyl-3-methyl-1H-pyrazole-5-carboxamido)-1H-benzo[d]imidazol-7-yl)oxy)prop-1-yn-1-yl)piperidine-1-carbonyl)piperidine-1-carboxylate] | < 0.05

Continued, values first:

Row | EC50 [µM] | SMILES
7 | < 0.05 | CCn1nc(C)cc1C(=O)Nc1nc2cc(C(N)=O)cc(OC)c2n1C/C=C/Cn1c(NC(=O)c2cc(C)nn2CC)nc2cc(C(N)=O)cc(OCC#CC3CCN(C(=O)OC(C)(C)C)CC3)c21 [Example 3, tert-butyl (E)-4-(3-((5-carbamoyl-1-(4-(5-carbamoyl-2-(1-ethyl-3-methyl-1H-pyrazole-5-carboxamido)-7-methoxy-1H-benzo[d]imidazol-1-yl)but-2-en-1-yl)-2-(1-ethyl-3-methyl-1H-pyrazole-5-carboxamido)-1H-benzo[d]imidazol-7-yl)oxy)prop-1-yn-1-yl)piperidine-1-carboxylate]
8 | < 0.05 | CCn1nc(C)cc1C(=O)Nc1nc2cc(C(N)=O)cc(OC)c2n1C/C=C/Cn1c(NC(=O)c2cc(C)nn2CC)nc2cc(C(N)=O)cc(OCC#CC3CCN(C(=O)OC(C)C)CC3)c21 [Example 5, isopropyl (E)-4-(3-((5-carbamoyl-1-(4-(5-carbamoyl-2-(1-ethyl-3-methyl-1H-pyrazole-5-carboxamido)-7-methoxy-1H-benzo[d]imidazol-1-yl)but-2-en-1-yl)-2-(1-ethyl-3-methyl-1H-pyrazole-5-carboxamido)-1H-benzo[d]imidazol-7-yl)oxy)prop-1-yn-1-yl)piperidine-1-carboxylate]
9 | < 0.05 | CCn1nc(C)cc1C(=O)Nc1nc2cc(C(N)=O)cc(OC)c2n1C/C=C/Cn1c(NC(=O)c2cc(C)nn2CC)nc2cc(C(N)=O)cc(OCC#CC3CCN(C(=O)OC4CC4)CC3)c21 [Example 6, cyclopropyl (E)-4-(3-((5-carbamoyl-1-(4-(5-carbamoyl-2-(1-ethyl-3-methyl-1H-pyrazole-5-carboxamido)-7-methoxy-1H-benzo[d]imidazol-1-yl)but-2-en-1-yl)-2-(1-ethyl-3-methyl-1H-pyrazole-5-carboxamido)-1H-benzo[d]imidazol-7-yl)oxy)prop-1-yn-1-yl)piperidine-1-carboxylate]
10 | < 0.05 | CCn1nc(C)cc1C(=O)Nc1nc2cc(C(N)=O)cc(OC)c2n1C/C=C/Cn1c(NC(=O)c2cc(C)nn2CC)nc2cc(C(N)=O)cc(OCC#CC3CCN(C(=O)OC4CCCC4)CC3)c21 [Example 7, cyclopentyl (E)-4-(3-((5-carbamoyl-1-(4-(5-carbamoyl-2-(1-ethyl-3-methyl-1H-pyrazole-5-carboxamido)-7-methoxy-1H-benzo[d]imidazol-1-yl)but-2-en-1-yl)-2-(1-ethyl-3-methyl-1H-pyrazole-5-carboxamido)-1H-benzo[d]imidazol-7-yl)oxy)prop-1-yn-1-yl)piperidine-1-carboxylate]
11 | < 0.05 | CCn1nc(C)cc1C(=O)Nc1nc2cc(C(N)=O)cc(OC)c2n1C/C=C/Cn1c(NC(=O)c2cc(C)nn2CC)nc2cc(C(N)=O)cc(OCC#CC3CCN(C(=O)OCCO)CC3)c21 [Example 10, 2-hydroxyethyl (E)-4-(3-((5-carbamoyl-1-(4-(5-carbamoyl-2-(1-ethyl-3-methyl-1H-pyrazole-5-carboxamido)-7-methoxy-1H-benzo[d]imidazol-1-yl)but-2-en-1-yl)-2-(1-ethyl-3-methyl-1H-pyrazole-5-carboxamido)-1H-benzo[d]imidazol-7-yl)oxy)prop-1-yn-1-yl)piperidine-1-carboxylate]
12 | < 0.05 | CCn1nc(C)cc1C(=O)Nc1nc2cc(C(N)=O)cc(OC)c2n1C/C=C/Cn1c(NC(=O)c2cc(C)nn2CC)nc2cc(C(N)=O)cc(OCC#CC3CCN(C(=O)C(C)(C)C)CC3)c21 [Example 11, (E)-1-(4-(5-carbamoyl-2-(1-ethyl-3-methyl-1H-pyrazole-5-carboxamido)-7-((3-(1-pivaloylpiperidin-4-yl)prop-2-yn-1-yl)oxy)-1H-benzo[d]imidazol-1-yl)but-2-en-1-yl)-2-(1-ethyl-3-methyl-1H-pyrazole-5-carboxamido)-7-methoxy-1H-benzo[d]imidazole-5-carboxamide]
13 | < 0.05 | CCn1nc(C)cc1C(=O)Nc1nc2cc(C(N)=O)cc(OC)c2n1C/C=C/Cn1c(NC(=O)c2cc(C)nn2CC)nc2cc(C(N)=O)cc(OCC#CC3CCN(C(=O)c4cc(C)nn4CC)CC3)c21 [Example 13, (E)-1-(4-(5-carbamoyl-2-(1-ethyl-3-methyl-1H-pyrazole-5-carboxamido)-7-methoxy-1H-benzo[d]imidazol-1-yl)but-2-en-1-yl)-7-((3-(1-(1-ethyl-3-methyl-1H-pyrazole-5-carbonyl)piperidin-4-yl)prop-2-yn-1-yl)oxy)-2-(1-ethyl-3-methyl-1H-pyrazole-5-carboxamido)-1H-benzo[d]imidazole-5-carboxamide]
14 | < 0.05 | CCn1nc(C)cc1C(=O)Nc1nc2cc(C(N)=O)cc(OC)c2n1C/C=C/Cn1c(NC(=O)c2cc(C)nn2CC)nc2cc(C(N)=O)cc(OCC#CC3CCN(C(=O)NC4CC4)CC3)c21 [Example 14, (E)-1-(4-(5-carbamoyl-2-(1-ethyl-3-methyl-1H-pyrazole-5-carboxamido)-7-methoxy-1H-benzo[d]imidazol-1-yl)but-2-en-1-yl)-7-((3-(1-(cyclopropylcarbamoyl)piperidin-4-yl)prop-2-yn-1-yl)oxy)-2-(1-ethyl-3-methyl-1H-pyrazole-5-carboxamido)-1H-benzo[d]imidazole-5-carboxamide]
